{"source": "paper PMC10745768", "about": "“Stereoselective Synthesis and Antiproliferative Activity of Steviol-Based Diterpene 1,3-Aminoalcohol Regioisomers” (Molecules, 2023)", "key": {"HeLa cells": {"tested_on": "HeLa cells", "test": "MTT antiproliferative assay, HeLa", "format": "cell-based", "settings": "Homo sapiens, 72 h, read-out: Growth inhibition (%) ± SEM", "procedure": "(§1) The in vitro anticancer effects of the presented compounds were assessed using the standard MTT [3-(4,5-dimethylthiazol2-yl)-2,5-diphenyltetrazolium bromide] assay on the following human cancer cell lines: cervical (HeLa and SiHa), breast (MCF-7 and MDA-MB-231) and ovarian cancer (A2780). The selectivity of the tested compounds was determined on murine embryonal fibroblast cells (NIH/3T3). The utilised cell lines were purchased from the European Collection of Cell Cultures (Salisbury, UK). The cells were cultivated in Eagle’s minimal essential medium supplemented with 10% fetal bovine serum, 1% non-essential amino acids and 1% antibiotic-antimycotic complex (penicillin, streptomycin, amphotericin B) at 37 °C in a humidified atmosphere containing 5% CO2. All media and supplements were purchased from Lonza Group Ltd. (Basel, Switzerland). The cancer cells were seeded into 96-well plates (5000 cells/well) and incubated overnight, and the test compounds were applied in two different concentrations (10 µM and 30 µM) and incubated for another 72 h under cell-culturing conditions. […] After 72 h, 20 µL of the 5 mg/mL MTT solution was added to each well, and the plates were incubated for 4 h. The medium was removed, and the formazan crystals produced by the mitochondrial activity were dissolved in dimethyl sulfoxide (DMSO) via shaking at 37 °C for 30 min. The absorbances were measured at 545 nm using a microplate reader (SPECTROStar Nano, BMG Labtech, Offenburg, Germany). The reference agent was cisplatin, which is a widely used cytotoxic agent. The IC50 values were calculated using sigmoid curve fitting. Two independent experiments were performed with five parallel wells for each condition. Calculations were performed using the GraphPad Prism 9 software (GraphPad Software Inc., San Diego, CA, USA)."}, "SiHa cells": {"tested_on": "SiHa cells", "test": "MTT antiproliferative assay, SiHa", "format": "cell-based", "settings": "Homo sapiens, 72 h, read-out: Growth inhibition (%) ± SEM", "procedure": "as §1"}, "MCF-7 cells": {"tested_on": "MCF-7 cells", "test": "MTT antiproliferative assay, MCF-7", "format": "cell-based", "settings": "Homo sapiens, MCF7, 72 h, read-out: Growth inhibition (%) ± SEM; for inhibition at 10 µM: MCF-7, 10 μM; for inhibition at 30 µM: MCF-7, 30 μM", "procedure": "as §1"}, "MDA-MB-231 cells": {"tested_on": "MDA-MB-231 cells", "test": "MTT antiproliferative assay, MDA-MB-231", "format": "cell-based", "settings": "Homo sapiens, 72 h, read-out: Growth inhibition (%) ± SEM; for inhibition at 10 µM: MDA-MB-231, 10 μM; for inhibition at 30 µM: MDA-MB-231, 30 μM", "procedure": "as §1"}, "A2780 cells": {"tested_on": "A2780 cells", "test": "MTT antiproliferative assay, A2780", "format": "cell-based", "settings": "Homo sapiens, 72 h, read-out: Growth inhibition (%) ± SEM; for inhibition at 10 µM: A2780, 10 μM; for inhibition at 30 µM: A2780, 30 μM", "procedure": "as §1"}, "NIH/3T3 fibroblast cells": {"tested_on": "NIH/3T3 fibroblast cells", "test": "MTT assay on non-malignant fibroblasts (selectivity)", "format": "cell-based, murine", "settings": "Mus musculus, NIH3T3, 72 h, read-out: Growth inhibition (%) ± SEM; for inhibition at 10 µM: NIH/3T3, 10 μM; for inhibition at 30 µM: NIH/3T3, 30 μM", "procedure": "as §1"}}, "data": [{"smiles": "CC[C@H](NC[C@@]12CC[C@@H]3[C@@](CC[C@H]4[C@@]3(C)CCC[C@@]4(C)C(=O)OC)(C[C@H]1O)C2)c1ccccc1", "note": "[Compound 25, (4R,4aS,6aR,8R,9S,11aR,11bS)-Methyl 8-hydroxy-4,11b-dimethyl-9-((((S)-1-phenylpropyl)amino)methyl)tetradecahydro-6a,9-methanocyclohepta[a]naphthalene-4-carboxylate]", "values": [{"measurement": "inhibition at 10 µM", "setting": "HeLa cells", "result": "< 20", "unit": "%"}, {"measurement": "inhibition at 30 µM", "setting": "HeLa cells", "result": "32.2 ± 2.88", "unit": "%"}, {"measurement": "inhibition at 10 µM", "setting": "SiHa cells", "result": "< 20", "unit": "%"}, {"measurement": "inhibition at 30 µM", "setting": "SiHa cells", "result": "< 20", "unit": "%"}, {"measurement": "inhibition at 10 µM", "setting": "MCF-7 cells", "result": "40.1 ± 1.44", "unit": "%"}, {"measurement": "inhibition at 30 µM", "setting": "MCF-7 cells", "result": "78.8 ± 1.52", "unit": "%"}, {"measurement": "inhibition at 10 µM", "setting": "MDA-MB-231 cells", "result": "< 20", "unit": "%"}, {"measurement": "inhibition at 30 µM", "setting": "MDA-MB-231 cells", "result": "69.3 ± 1.96", "unit": "%"}, {"measurement": "inhibition at 10 µM", "setting": "A2780 cells", "result": "< 20", "unit": "%"}, {"measurement": "inhibition at 30 µM", "setting": "A2780 cells", "result": "73.83 ± 0.57", "unit": "%"}, {"measurement": "inhibition at 10 µM", "setting": "NIH/3T3 fibroblast cells", "result": "< 20", "unit": "%"}, {"measurement": "inhibition at 30 µM", "setting": "NIH/3T3 fibroblast cells", "result": "93.7 ± 1.11", "unit": "%"}]}, {"smiles": "COC(=O)[C@]1(C)CCC[C@@]2(C)[C@@H]3CC[C@@]4(CNCc5cccc6ccccc56)C[C@]3(CC[C@@H]21)C[C@H]4O", "note": "[Compound 26, (4R,4aS,6aR,8R,9S,11aR,11bS)-Methyl 8-hydroxy-4,11b-dimethyl-9-(((naphthalen-1-ylmethyl)amino)methyl)tetradecahydro-6a,9-methanocyclohepta[a]naphthalene-4-carboxylate]", "values": [{"measurement": "inhibition at 10 µM", "setting": "HeLa cells", "result": "49.5 ± 1.23", "unit": "%"}, {"measurement": "inhibition at 30 µM", "setting": "HeLa cells", "result": "93.6 ± 1.56", "unit": "%"}, {"measurement": "inhibition at 10 µM", "setting": "SiHa cells", "result": "63.4 ± 0.91", "unit": "%"}, {"measurement": "inhibition at 30 µM", "setting": "SiHa cells", "result": "86.9 ± 1.69", "unit": "%"}, {"measurement": "inhibition at 10 µM", "setting": "MCF-7 cells", "result": "90.7 ± 1.57", "unit": "%"}, {"measurement": "inhibition at 30 µM", "setting": "MCF-7 cells", "result": "97.49 ± 0.53", "unit": "%"}, {"measurement": "inhibition at 10 µM", "setting": "MDA-MB-231 cells", "result": "87.61 ± 0.59", "unit": "%"}, {"measurement": "inhibition at 30 µM", "setting": "MDA-MB-231 cells", "result": "93.1 ± 1.53", "unit": "%"}, {"measurement": "inhibition at 10 µM", "setting": "A2780 cells", "result": "61.4 ± 1.45", "unit": "%"}, {"measurement": "inhibition at 30 µM", "setting": "A2780 cells", "result": "98.21 ± 0.43", "unit": "%"}, {"measurement": "inhibition at 10 µM", "setting": "NIH/3T3 fibroblast cells", "result": "25.7 ± 1.93", "unit": "%"}, {"measurement": "inhibition at 30 µM", "setting": "NIH/3T3 fibroblast cells", "result": "95.6 ± 0.96", "unit": "%"}]}, {"smiles": "COC(=O)[C@]1(C)CCC[C@@]2(C)[C@@H]3CC[C@@]4(CN[C@@H](C)c5cccc6ccccc56)C[C@]3(CC[C@@H]21)C[C@H]4O", "note": "[Compound 27, (4R,4aS,6aR,8R,9S,11aR,11bS)-Methyl 8-hydroxy-4,11b-dimethyl-9-((((S)-1-(naphthalen-1-yl)ethyl)amino)methyl)tetradecahydro-6a,9-methanocyclohepta[a]naphthalene-4-carboxylate]", "values": [{"measurement": "inhibition at 10 µM", "setting": "HeLa cells", "result": "< 20", "unit": "%"}, {"measurement": "inhibition at 30 µM", "setting": "HeLa cells", "result": "96.38 ± 0.83", "unit": "%"}, {"measurement": "inhibition at 10 µM", "setting": "SiHa cells", "result": "< 20", "unit": "%"}, {"measurement": "inhibition at 30 µM", "setting": "SiHa cells", "result": "86.9 ± 2.27", "unit": "%"}, {"measurement": "inhibition at 10 µM", "setting": "MCF-7 cells", "result": "79.6 ± 2.89", "unit": "%"}, {"measurement": "inhibition at 30 µM", "setting": "MCF-7 cells", "result": "97.63 ± 0.31", "unit": "%"}, {"measurement": "inhibition at 10 µM", "setting": "MDA-MB-231 cells", "result": "67.2 ± 1.94", "unit": "%"}, {"measurement": "inhibition at 30 µM", "setting": "MDA-MB-231 cells", "result": "93.69 ± 0.42", "unit": "%"}, {"measurement": "inhibition at 10 µM", "setting": "A2780 cells", "result": "59 ± 1.68", "unit": "%"}, {"measurement": "inhibition at 30 µM", "setting": "A2780 cells", "result": "98.92 ± 0.22", "unit": "%"}, {"measurement": "inhibition at 10 µM", "setting": "NIH/3T3 fibroblast cells", "result": "< 20", "unit": "%"}, {"measurement": "inhibition at 30 µM", "setting": "NIH/3T3 fibroblast cells", "result": "94 ± 1.64", "unit": "%"}]}, {"smiles": "COC(=O)[C@]1(C)CCC[C@@]2(C)[C@@H]3CC[C@@]4(CN[C@H](C)c5cccc6ccccc56)C[C@]3(CC[C@@H]21)C[C@H]4O", "note": "[Compound 28, (4R,4aS,6aR,8R,9S,11aR,11bS)-Methyl 8-hydroxy-4,11b-dimethyl-9-((((R)-1-(naphthalen-1-yl)ethyl)amino)methyl)tetradecahydro-6a,9-methanocyclohepta[a]naphthalene-4-carboxylate]", "values": [{"measurement": "inhibition at 10 µM", "setting": "HeLa cells", "result": "46.8 ± 1.44", "unit": "%"}, {"measurement": "inhibition at 30 µM", "setting": "HeLa cells", "result": "94.66 ± 0.63", "unit": "%"}, {"measurement": "inhibition at 10 µM", "setting": "SiHa cells", "result": "63.4 ± 2.66", "unit": "%"}, {"measurement": "inhibition at 30 µM", "setting": "SiHa cells", "result": "86.1 ± 3.79", "unit": "%"}, {"measurement": "inhibition at 10 µM", "setting": "MCF-7 cells", "result": "90.63 ± 0.54", "unit": "%"}, {"measurement": "inhibition at 30 µM", "setting": "MCF-7 cells", "result": "97.75 ± 0.39", "unit": "%"}, {"measurement": "inhibition at 10 µM", "setting": "MDA-MB-231 cells", "result": "88 ± 0.54", "unit": "%"}, {"measurement": "inhibition at 30 µM", "setting": "MDA-MB-231 cells", "result": "92.9 ± 1.04", "unit": "%"}, {"measurement": "inhibition at 10 µM", "setting": "A2780 cells", "result": "60.1 ± 2.24", "unit": "%"}, {"measurement": "inhibition at 30 µM", "setting": "A2780 cells", "result": "98.53 ± 0.42", "unit": "%"}, {"measurement": "inhibition at 10 µM", "setting": "NIH/3T3 fibroblast cells", "result": "< 20", "unit": "%"}, {"measurement": "inhibition at 30 µM", "setting": "NIH/3T3 fibroblast cells", "result": "94 ± 1.95", "unit": "%"}]}, {"smiles": "COC(=O)[C@]1(C)CCC[C@@]2(C)[C@@H]3CC[C@@]4(CN[C@H](C)c5ccc6ccccc6c5)C[C@]3(CC[C@@H]21)C[C@H]4O", "note": "[Compound 29, (4R,4aS,6aR,8R,9S,11aR,11bS)-Methyl 8-hydroxy-4,11b-dimethyl-9-((((R)-1-(naphthalen-2-yl)ethyl)amino)methyl)tetradecahydro-6a,9-methanocyclohepta[a]naphthalene-4-carboxylate]", "values": [{"measurement": "inhibition at 10 µM", "setting": "HeLa cells", "result": "< 20", "unit": "%"}, {"measurement": "inhibition at 30 µM", "setting": "HeLa cells", "result": "92.17 ± 0.38", "unit": "%"}, {"measurement": "inhibition at 10 µM", "setting": "SiHa cells", "result": "< 20", "unit": "%"}, {"measurement": "inhibition at 30 µM", "setting": "SiHa cells", "result": "79.5 ± 2.33", "unit": "%"}, {"measurement": "inhibition at 10 µM", "setting": "MCF-7 cells", "result": "32.5 ± 0.92", "unit": "%"}, {"measurement": "inhibition at 30 µM", "setting": "MCF-7 cells", "result": "93.08 ± 0.3", "unit": "%"}, {"measurement": "inhibition at 10 µM", "setting": "MDA-MB-231 cells", "result": "< 20", "unit": "%"}, {"measurement": "inhibition at 30 µM", "setting": "MDA-MB-231 cells", "result": "95.3 ± 0.97", "unit": "%"}, {"measurement": "inhibition at 10 µM", "setting": "A2780 cells", "result": "21.9 ± 0.73", "unit": "%"}, {"measurement": "inhibition at 30 µM", "setting": "A2780 cells", "result": "75 ± 1.79", "unit": "%"}, {"measurement": "inhibition at 10 µM", "setting": "NIH/3T3 fibroblast cells", "result": "< 20", "unit": "%"}, {"measurement": "inhibition at 30 µM", "setting": "NIH/3T3 fibroblast cells", "result": "32 ± 1.3", "unit": "%"}]}]}
